# Laboratory results reported in US20020052296A1, “Herbicidal synergistic combination of a dihydrobenzothiophene compound and a photosystem II inhibitor” (Intellectual Property Department, BASF Aktiengesellschaft, priority 2000, published 2002).
# Tests used:
# Details in all cases: 18 days after treatment
# [1] = system: ECHCG (Barnyardgrass); experiment: Greenhouse postemergence herbicidal evaluation, % weed control; format: in vivo, Echinochloa crus-galli
# Description: (§1) In the following examples, synergism for two-way combinations is determined by the Colby1 method, i.e. the expected (or predicted) response of the combination is calculated by taking the product of the observed response for each individual component of the combination when applied alone divided by 100 and subtracting this value from the sum of the observed response for each component when applied alone. Synergism of the combination is then determined by comparing the observed response of the combination to the expected (or predicted) response as calculated from the observed responses of each individual component alone. If the observed response of the combination is greater than the expected (or predicted) response then the combination is said to be synergistic and falls within the definition of synergistic effect as previously defined.
# (§2) In this evaluation, seedlings of the plant species listed below are grown in Metromix® soil in jiffy flats for about two weeks, to the 2-3 leaf growth stage. The test compounds are dispersed in water containing 1.0% Sunit II, a methylated seed oil of Agsco, Inc., and applied to the plants through a spray nozzle operating at 40 psi for a predetermined time so as to obtain a range of application rates of about 3.0 g/ha to 250 g/ha. Each treatment is replicated 3 times. After spraying, the plants are placed on greenhouse benches and are cared for in accordance with conventional greenhouse procedures. Eighteen days after treatment, the seedling plants are examined and the % weed control as compared to the untreated check is recorded.
# (§3) For replicated treatments, the data are averaged. The Colby method of analysis is used to determine the resultant biological effect of the combination treatment as compared to the biological effect of each component when applied alone. In Tables I and II, obs designates observed and exp designates expected.
# [2] = system: SETFA (Foxtail, giant); experiment: as above; format: in vivo, Setaria faberi
# Description: as §1, §2, §3
# [3] = system: SORHA (Johnsongrass); experiment: as above; format: in vivo, Sorghum halepense
# Description: as §1, §2, §3
# [4] = system: SETVI (Foxtail, green); experiment: as above; format: in vivo, Setaria viridis
# Description: as §1, §2, §3
# [5] = system: PANMI (Millet, wild proso); experiment: as above; format: in vivo, Panicum miliaceum
# Description: as §1, §2, §3
# [6] = system: ERBVI (Cupgrass, woolly); experiment: as above; format: in vivo, Eriochloa villosa
# Description: as §1, §2, §3
# [7] = system: SORBI (Shattercane); experiment: as above; format: in vivo, Sorghum bicolor
# Description: as §1, §2, §3
# [8] = system: ZEAMX (Corn); experiment: Greenhouse postemergence herbicidal evaluation, crop response; format: in vivo, Zea mays
# Description: as §1, §2, §3
# [9] = system: PANDI (Fall panicum); experiment: Greenhouse postemergence herbicidal evaluation, % weed control; format: in vivo, Panicum dichotomiflorum
# Description: as §1, §2, §3
# [10] = system: CASOB (Sicklepod); experiment: as above; format: in vivo, Senna obtusifolia
# Description: as §1, §2, §3
# [11] = system: BRAPP (Signalgrass, broadleaf); experiment: as above; format: in vivo, Brachiaria platyphylla
# Description: as §1, §2, §3
# [12] = system: DIGSA (Crabgrass, large); experiment: as above; format: in vivo, Digitaria sanguinalis
# Description: as §1, §2, §3
# [13] = system: AGRRE (Quackgrass); experiment: as above; format: in vivo, Elytrigia repens
# Description: as §1, §2, §3
compound,measurement,setting,value
"CCCS(=O)(=O)Oc1c(C(=O)c2ccc3c(c2C)C(C)(C)CS3(=O)=O)cnn1C [DHBT IA, 1-propanesulfonic acid ester of 2,3-dihydro-3,3,4-trimethylbenzo [b]thien-5-yl 5-hydroxy-1-methylpyrazol-4-yl ketone S,S-dioxide]",% WEED CONTROL ECHCG Obs,[1]; 3.00 g/ha alone,45%
same,% WEED CONTROL ECHCG Obs,[1]; 6.00 g/ha alone,60%
same,% WEED CONTROL ECHCG Obs,[1]; 12.0 g/ha alone,80%
same,% WEED CONTROL SETFA Obs,[2]; 3.00 g/ha alone,35%
same,% WEED CONTROL SETFA Obs,[2]; 6.00 g/ha alone,55%
same,% WEED CONTROL SETFA Obs,[2]; 12.0 g/ha alone,90%
same,% WEED CONTROL SORHA Obs,[3]; 3.00 g/ha alone,35%
same,% WEED CONTROL SORHA Obs,[3]; 6.00 g/ha alone,40%
same,% WEED CONTROL SORHA Obs,[3]; 12.0 g/ha alone,65%
same,% WEED CONTROL SETVI Obs,[4]; 3.00 g/ha alone,35%
same,% WEED CONTROL SETVI Obs,[4]; 6.00 g/ha alone,100%
same,% WEED CONTROL SETVI Obs,[4]; 12.0 g/ha alone,80%
same,% WEED CONTROL PANMI Obs,[5]; 3.00 g/ha alone,40%
same,% WEED CONTROL PANMI Obs,[5]; 6.00 g/ha alone,70%
same,% WEED CONTROL PANMI Obs,[5]; 12.0 g/ha alone,95%
same,% WEED CONTROL ERBVI Obs,[6]; 3.00 g/ha alone,0%
same,% WEED CONTROL ERBVI Obs,[6]; 6.00 g/ha alone,15%
same,% WEED CONTROL ERBVI Obs,[6]; 12.0 g/ha alone,40%
same,% WEED CONTROL SORBI Obs,[7]; 3.00 g/ha alone,30%
same,% WEED CONTROL SORBI Obs,[7]; 6.00 g/ha alone,35%
same,% WEED CONTROL SORBI Obs,[7]; 12.0 g/ha alone,60%
same,"% crop injury, corn (observed)",[8]; 3.00 g/ha alone,0%
same,"% crop injury, corn (observed)",[8]; 6.00 g/ha alone,0%
same,"% crop injury, corn (observed)",[8]; 12.0 g/ha alone,0%
same,% WEED CONTROL PANDI Obs,[9]; 3.00 g/ha alone,40%
same,% WEED CONTROL PANDI Obs,[9]; 6.00 g/ha alone,55%
same,% WEED CONTROL PANDI Obs,[9]; 12.0 g/ha alone,75%
same,% WEED CONTROL CASOB Obs,[10]; 3.00 g/ha alone,15%
same,% WEED CONTROL CASOB Obs,[10]; 6.00 g/ha alone,25%
same,% WEED CONTROL CASOB Obs,[10]; 12.0 g/ha alone,25%
same,% WEED CONTROL BRAPP Obs,[11]; 3.00 g/ha alone,25%
same,% WEED CONTROL BRAPP Obs,[11]; 6.00 g/ha alone,55%
same,% WEED CONTROL BRAPP Obs,[11]; 12.0 g/ha alone,100%
same,% WEED CONTROL DIGSA Obs,[12]; 3.00 g/ha alone,50%
same,% WEED CONTROL DIGSA Obs,[12]; 6.00 g/ha alone,70%
same,% WEED CONTROL DIGSA Obs,[12]; 12.0 g/ha alone,85%
same,% WEED CONTROL AGRRE Obs,[13]; 3.00 g/ha alone,20%
same,% WEED CONTROL AGRRE Obs,[13]; 6.00 g/ha alone,30%
same,% WEED CONTROL AGRRE Obs,[13]; 12.0 g/ha alone,35%
Atrazine [reference compound],% WEED CONTROL ECHCG Obs,[1]; 250 g/ha alone,85%
same,% WEED CONTROL SETFA Obs,[2]; 250 g/ha alone,85%
same,% WEED CONTROL SORHA Obs,[3]; 250 g/ha alone,0%
same,% WEED CONTROL SETVI Obs,[4]; 250 g/ha alone,90%
same,% WEED CONTROL PANMI Obs,[5]; 250 g/ha alone,60%
same,% WEED CONTROL ERBVI Obs,[6]; 250 g/ha alone,10%
same,% WEED CONTROL SORBI Obs,[7]; 250 g/ha alone,0%
same,"% crop injury, corn (observed)",[8]; 250 g/ha alone,0%
same,% WEED CONTROL PANDI Obs,[9]; 250 g/ha alone,5%
same,% WEED CONTROL CASOB Obs,[10]; 250 g/ha alone,40%
same,% WEED CONTROL BRAPP Obs,[11]; 250 g/ha alone,20%
same,% WEED CONTROL DIGSA Obs,[12]; 250 g/ha alone,15%
same,% WEED CONTROL AGRRE Obs,[13]; 250 g/ha alone,45%
